Results as given in publication PMC9506480, “Synthesis and Evaluation of Antiproliferative Activity, Topoisomerase IIα Inhibition, DNA Binding and Non-Clinical Toxicity of New Acridine–Thiosemicarbazone Derivatives” (Pharmaceuticals, 2022).

Assays:
CT DNA = CT DNA binding by UV–Vis absorption spectroscopy; set-up: species or system calf; settings: compound 40 µM, CT DNA 0 to 60 µM, Tris-HCl pH 7.4
Experimental: Absorption spectroscopy is a convenient and simple method for probing the binding of small molecules to DNA. The interaction of selected acridine–thiosemicarbazone derivatives with CT DNA was studied in the 220–500 nm region. Binding constants (Kb) were calculated from [DNA]/(Ɛa − Ɛf) versus [DNA], in which Kb is given by the ratio of slope to the intercept. […] For this, the regions chosen were the ones with the highest absorption intensity above 300 nm, due to the lower interference in DNA absorption in this region (ESI, Figures S50 and S53).
The concentration of the calf thymus, Type I, fibers (CT DNA), was determined based on the extinction coefficient of the absorbance at 260 nm (6600 L mol^−1 cm^−1). All compounds were dissolved in methanol (HPLC grade) at a concentration of 1 mmol L^−1 (stock solution). Working solutions were prepared by diluting the stock solution using Tris-HCl buffer (pH 7.4), with concentrations of 40 µmol L^−1. Under the optimized concentration, the compounds were titered with increasing concentrations of CT DNA (5 to 60 µmol L^−1). After shaking the system and incubating at room temperature for 10 min, the measurements were recorded using a JASCO J818 spectropolarimeter in the range of 220 to 500 nm at 298 K. The intrinsic bond constant (Kb) was obtained by adjusting the data according to the equation below:[DNA]/(Ɛa − Ɛf) = [DNA]/(Ɛb − Ɛf) + 1/[Kb (Ɛb − Ɛf)] where Ɛa, Ɛb and Ɛf are the apparent extinction coefficient of the compounds, the extinction coefficient of the compounds found in their […] and the extinction coefficient of the compounds when fully DNA-bound, respectively. The graph of [DNA]/(Ɛa − Ɛf) versus [DNA] was used to obtain the Kb from the ratio between the slope and the intercept, as previously described in the literature. Binding data were obtained using SigmaPlot 10.0 software. The study of possible DNA denaturation using methanol–water solutions was evaluated up to the maximum final concentration of methanol in the assays (6%) (ESI, Figures S50 and S53).

CT DNA–EtBr = assay: Fluorescence competition with EtBr; assay type: binding, calf; settings: for Ksv (10^3) (M^−1): [EtBr] = 20 μmol L^−1, [DNA] = 100 μmol L^−1; for Quenching (%): [EtBr] = 20 μmol L^−1, [DNA] = 100 μmol L^−1, [compound] = 0–100 μmol L^−1
Source text: EtBr is a weak fluorophore in an aqueous solvent, which has its fluorescence enhanced when it binds to DNA by the intercalative mode. The study of fluorescence quenching with EtBr is commonly used to assess the ability of compounds to interact with DNA by interfering with the fluorescence of the EtBr–DNA interaction (ESI, Figures S58 and S59). The EtBr–DNA complex in the presence and absence of CL-07 is shown in Figure 6, and the comparison of the quenching extent between studied compounds in terms of F/F0 vs. [compound] is illustrated in Figure 7.
The fluorescence titration results were analyzed using the Stern–Volmer equation [101], and the Ksv values of CT DNA–EtBr in the presence of the compounds calculated the slope of the graphs. The fluorescence spectra of the EtBr or CT DNA–EtBr compounds were obtained by excitation at 526 nm and scanning the emission from 530 to 650 nm. Solutions containing CT DNA–EtBr (20 μM:100 μM) were analyzed in the presence of several derivative concentrations (10, 20, 40, 60, 80 and 100 μM) in Tris-HCl buffer (0.1 M, pH 7.4) (ESI, Figures S58 and S59):F0/F = 1 + Ksv[Q] F0 and F represent the steady-state fluorescence intensities of CT DNA–EtBr in the absence and presence of the compounds, respectively. [Q] refers to the concentration of derivatives as a quencher. Ksv indicates the Stern–Volmer quenching constant.

Swiss mice = assay: Acute toxicity study (14 days), OECD guideline 423; assay type: in vivo; settings: for Organ mass Heart (g) / Organ mass Kidneys (g) / Organ mass Liver (g) / Organ mass Lungs (g) / Organ mass Speleen (g): after acute toxicity study; for Organ mass Heart (g) / Organ mass Kidneys (g) / Organ mass Liver (g) / Organ mass Lungs (g) / Organ mass Speleen (g) / Food (g/day) / Water (mL/day) / Weight gain (g): 2000 mg/kg oral; for Food (g/day) / Water (mL/day) / Weight gain (g): during acute toxicity study; for DA/TA (dead animals/total animals) / Mortality (%) / Signs of Toxicity: single oral dose 2000 mg/kg, female mice, 14 days
Experimental: Based on the low selectivity found in the in vitro cytotoxicity, we decided to perform a preclinical in vivo toxicological analysis on mice to understand the pharmacological profiles of the derivatives described herein. After oral administration of acridine–thiosemicarbazone derivatives to female mice, possible adverse clinical signs and mortality in the groups of animals submitted to the acute toxicity study were recorded (Table 6), as well as absolute body mass, food and water consumption, and the average masses of the organs of the animals treated with the compounds and the control group.
An acute toxicity study was conducted according to Organization for Economic Co-operation and Development (OECD) guideline 423 (OECD 2001) with modifications (National Health Surveillance Agency Brazil, 2013). In principle, the method is not intended to allow an accurate calculation of the lethal dose (LD50), despite providing an estimate of its value; however, it allows a classification of the substance into categories according to the Globally Harmonized Classification System (GHS). The tests were carried out with the consent of the ethics council of the State University of Paraiba (process no. 008/2021, approved 9 November 2021). Swiss mice, three females per group, were subjected to single oral doses of 2000 mg/kg of acridine–thiosemicarbazone derivatives, and to the control group, we administered only the vehicle (12% Tween 80 solution in saline).
After the end of treatment with acridine–thiosemicarbazone derivatives, the animals were anesthetized with a xylazine–ketamine solution of 0.2 mL/100 g (8.75 mL ketamine (100 mg/mL) and 1.25 mL xylazine (10 mg/mL)) as per Cornell University/Cornell Center for Animal Resources and Education protocol described by Flecknell (1996). After euthanasia, a macroscopic assessment of the external body surface, cavities (thoracic, abdominal and cranial) and organs (change in position, shape, size, color and consistency) was carried out. The absolute and relative weights of the brain, lungs, liver, heart, spleen and kidneys were also determined. Relative weight was calculated using the formula: relative organ weight (%) = (weight of organ/weight of mouse) × 100 [88, 89].

SMILES	Hypochromic (%) (CT DNA)	Ksv (10^3) (M^−1) (CT DNA–EtBr; Stern–Volmer constant)	Quenching (%) (CT DNA–EtBr)	Organ mass Heart (g) (Swiss mice)	Organ mass Kidneys (g) (Swiss mice)	Organ mass Liver (g) (Swiss mice)	Organ mass Lungs (g) (Swiss mice)	Organ mass Speleen (g) (Swiss mice)	Food (g/day) (Swiss mice)	Water (mL/day) (Swiss mice)	Weight gain (g) (Swiss mice)	DA/TA (dead animals/total animals) (Swiss mice)	Mortality (%) (Swiss mice)	Signs of Toxicity (Swiss mice)	Ksv (CT DNA–EtBr; Stern–Volmer constant, abstract value)
COc1ccc2nc3cc(Cl)ccc3c(NC(=S)N/N=C/c3cccc(O)c3)c2c1 [DL-08, (E)-N-(6-chloro-2-methoxyacridin-9-yl)-2-(3-hydroxybenzylidene)hydrazine-1-carbothioamide]	14.79%	2.5 10^3 M^−1	20.83%	0,427±0,035 g	1,355±0,062 g	5,619±0,259 g	0,646±0,032 g	0,412±0,033 g	15,21±0,97 g/day	25,28±0,46 mL/day	0,76±0,43 g	0/3	0%	Hepatic steatosis	
COc1ccc2nc3cc(Cl)ccc3c(NC(=S)N/N=C/c3ccccc3)c2c1 [DL-01, (E)-2-benzylidene-N-(6-chloro-2-methoxyacridin-9-yl)hydrazine-1-carbothioamide]	12.89%	1.8 10^3 M^−1	15.61%	0,410±0,039 g	1,338±0,091 g	5,257±0,610 g	0,640±0,057 g	0,551±0,037 g	12,35±1,39 g/day	23,71±1,26 mL/day	0,69±0,58 g	0/3	0%	Reduced feed consumption	
Oc1ccc(/C=N/NC(=S)Nc2c3ccccc3nc3ccccc23)cc1 [CL-07, (E)-N-(acridin-9-yl)-2-(4-hydroxybenzylidene)hydrazine-1-carbothioamide]	25.52%	2.6 10^3 M^−1	21.71%	0,417±0,038 g	1,308±0,099 g		0,619±0,089 g	0,574±0,061 g	14,57±1,78 g/day	23,57±1,34 mL/day	1,33±0,27 g	0/3	0%	None	2600 M⁻¹
